Laboratory results: the NIST ThermoML archive (doi:10.1016/j.jct.2016.04.014)

Settings: Liquid, Vibrating tube method

CCO [ethanol]
Settings	mass density [kg/m3]
288.15 K, 100 kPa	793.7
288.15 K, 1000 kPa	794.4
288.15 K, 5000 kPa	797.6
288.15 K, 10000 kPa	801.5
288.15 K, 15000 kPa	805.3
288.15 K, 20000 kPa	808.9
288.15 K, 25000 kPa	812.4
288.15 K, 30000 kPa	815.7
288.15 K, 35000 kPa	819
288.15 K, 40000 kPa	822.1
288.15 K, 45000 kPa	825.1
288.15 K, 50000 kPa	828
288.15 K, 55000 kPa	830.7
288.15 K, 60000 kPa	833.3
293.15 K, 100 kPa	789.4
293.15 K, 1000 kPa	790.2
293.15 K, 5000 kPa	793.5
293.15 K, 10000 kPa	797.4
293.15 K, 15000 kPa	801.3
293.15 K, 20000 kPa	805
293.15 K, 25000 kPa	808.6
293.15 K, 30000 kPa	812
293.15 K, 35000 kPa	815.3
293.15 K, 40000 kPa	818.5
293.15 K, 45000 kPa	821.5
293.15 K, 50000 kPa	824.5
293.15 K, 55000 kPa	827.2
293.15 K, 60000 kPa	829.9
298.15 K, 100 kPa	785.2
298.15 K, 1000 kPa	785.9
298.15 K, 5000 kPa	789.3
298.15 K, 10000 kPa	793.4
298.15 K, 15000 kPa	797.3
298.15 K, 20000 kPa	801.1
298.15 K, 25000 kPa	804.8
298.15 K, 30000 kPa	808.3
298.15 K, 35000 kPa	811.7
298.15 K, 40000 kPa	814.9
298.15 K, 45000 kPa	818
298.15 K, 50000 kPa	821
298.15 K, 55000 kPa	823.8
298.15 K, 60000 kPa	826.5
303.15 K, 100 kPa	780.9
303.15 K, 101 kPa	780.83
303.15 K, 1000 kPa	781.6
303.15 K, 5000 kPa	785.1
303.15 K, 10000 kPa	789.3
303.15 K, 15000 kPa	793.3
303.15 K, 20000 kPa	797.2
303.15 K, 25000 kPa	801
303.15 K, 30000 kPa	804.6
303.15 K, 35000 kPa	808
303.15 K, 40000 kPa	811.3
303.15 K, 45000 kPa	814.5
303.15 K, 50000 kPa	817.5
303.15 K, 55000 kPa	820.3
303.15 K, 60000 kPa	823.1
308.15 K, 100 kPa	776.5
308.15 K, 1000 kPa	777.3
308.15 K, 5000 kPa	780.9
308.15 K, 10000 kPa	785.2
308.15 K, 15000 kPa	789.3
308.15 K, 20000 kPa	793.3
308.15 K, 25000 kPa	797.1
308.15 K, 30000 kPa	800.8
308.15 K, 35000 kPa	804.3
308.15 K, 40000 kPa	807.7
308.15 K, 45000 kPa	810.9
308.15 K, 50000 kPa	814
308.15 K, 55000 kPa	816.9
308.15 K, 60000 kPa	819.6
313.15 K, 100 kPa	772.1
313.15 K, 101 kPa	772.1
313.15 K, 1000 kPa	773
313.15 K, 5000 kPa	776.6
313.15 K, 10000 kPa	781
313.15 K, 15000 kPa	785.3
313.15 K, 20000 kPa	789.4
313.15 K, 25000 kPa	793.3
313.15 K, 30000 kPa	797
313.15 K, 35000 kPa	800.6
313.15 K, 40000 kPa	804.1
313.15 K, 45000 kPa	807.4
313.15 K, 50000 kPa	810.5
313.15 K, 55000 kPa	813.4
313.15 K, 60000 kPa	816.2
318.15 K, 100 kPa	767.7
318.15 K, 1000 kPa	768.5
318.15 K, 5000 kPa	772.3
318.15 K, 10000 kPa	776.8
318.15 K, 15000 kPa	781.2
318.15 K, 20000 kPa	785.4
318.15 K, 25000 kPa	789.4
318.15 K, 30000 kPa	793.2
318.15 K, 35000 kPa	796.9
318.15 K, 40000 kPa	800.4
318.15 K, 45000 kPa	803.8
318.15 K, 50000 kPa	806.9
318.15 K, 55000 kPa	809.9
318.15 K, 60000 kPa	812.8
323.15 K, 100 kPa	763.2
323.15 K, 101 kPa	763.22
323.15 K, 1000 kPa	764.1
323.15 K, 5000 kPa	768
323.15 K, 10000 kPa	772.6
323.15 K, 15000 kPa	777.1
323.15 K, 20000 kPa	781.4
323.15 K, 25000 kPa	785.5
323.15 K, 30000 kPa	789.4
323.15 K, 35000 kPa	793.2
323.15 K, 40000 kPa	796.8
323.15 K, 45000 kPa	800.2
323.15 K, 50000 kPa	803.4
323.15 K, 55000 kPa	806.5
323.15 K, 60000 kPa	809.3
328.15 K, 100 kPa	758.7
328.15 K, 1000 kPa	759.6
328.15 K, 5000 kPa	763.6
328.15 K, 10000 kPa	768.3
328.15 K, 15000 kPa	772.9
328.15 K, 20000 kPa	777.3
328.15 K, 25000 kPa	781.6
328.15 K, 30000 kPa	785.6
328.15 K, 35000 kPa	789.5
328.15 K, 40000 kPa	793.1
328.15 K, 45000 kPa	796.6
328.15 K, 50000 kPa	799.9
328.15 K, 55000 kPa	803
328.15 K, 60000 kPa	805.9
333.15 K, 100 kPa	754.1
333.15 K, 1000 kPa	755
333.15 K, 5000 kPa	759.1
333.15 K, 10000 kPa	764
333.15 K, 15000 kPa	768.8
333.15 K, 20000 kPa	773.3
333.15 K, 25000 kPa	777.6
333.15 K, 30000 kPa	781.7
333.15 K, 35000 kPa	785.7
333.15 K, 40000 kPa	789.4
333.15 K, 45000 kPa	792.9
333.15 K, 50000 kPa	796.3
333.15 K, 55000 kPa	799.4
333.15 K, 60000 kPa	802.4
343.15 K, 100 kPa	744.6
343.15 K, 1000 kPa	745.6
343.15 K, 5000 kPa	750
343.15 K, 10000 kPa	755.2
343.15 K, 15000 kPa	760.2
343.15 K, 20000 kPa	765
343.15 K, 25000 kPa	769.6
343.15 K, 30000 kPa	773.9
343.15 K, 35000 kPa	778
343.15 K, 40000 kPa	781.9
343.15 K, 45000 kPa	785.6
343.15 K, 50000 kPa	789.1
343.15 K, 55000 kPa	792.3
343.15 K, 60000 kPa	795.3
353.15 K, 1000 kPa	736
353.15 K, 5000 kPa	740.6
353.15 K, 10000 kPa	746.2
353.15 K, 15000 kPa	751.5
353.15 K, 20000 kPa	756.5
353.15 K, 25000 kPa	761.3
353.15 K, 30000 kPa	765.9
353.15 K, 35000 kPa	770.2
353.15 K, 40000 kPa	774.3
353.15 K, 45000 kPa	778.1
353.15 K, 50000 kPa	781.7
353.15 K, 55000 kPa	785.1
353.15 K, 60000 kPa	788.2
363.15 K, 1000 kPa	725.9
363.15 K, 5000 kPa	730.8
363.15 K, 10000 kPa	736.7
363.15 K, 15000 kPa	742.4
363.15 K, 20000 kPa	747.7
363.15 K, 25000 kPa	752.8
363.15 K, 30000 kPa	757.7
363.15 K, 35000 kPa	762.2
363.15 K, 40000 kPa	766.5
363.15 K, 45000 kPa	770.5
363.15 K, 50000 kPa	774.3
363.15 K, 55000 kPa	777.7
363.15 K, 60000 kPa	780.9
373.15 K, 1000 kPa	715.3
373.15 K, 5000 kPa	720.6
373.15 K, 10000 kPa	727
373.15 K, 15000 kPa	733
373.15 K, 20000 kPa	738.7
373.15 K, 25000 kPa	744.2
373.15 K, 30000 kPa	749.3
373.15 K, 35000 kPa	754.1
373.15 K, 40000 kPa	758.6
373.15 K, 45000 kPa	762.8
373.15 K, 50000 kPa	766.7
373.15 K, 55000 kPa	770.2
373.15 K, 60000 kPa	773.5
393.15 K, 1000 kPa	692.2
393.15 K, 5000 kPa	698.4
393.15 K, 10000 kPa	705.8
393.15 K, 15000 kPa	712.8
393.15 K, 20000 kPa	719.4
393.15 K, 25000 kPa	725.6
393.15 K, 30000 kPa	731.4
393.15 K, 35000 kPa	736.8
393.15 K, 40000 kPa	741.8
393.15 K, 45000 kPa	746.4
393.15 K, 50000 kPa	750.7
393.15 K, 55000 kPa	754.5
393.15 K, 60000 kPa	757.9
413.15 K, 1000 kPa	666.3
413.15 K, 5000 kPa	673.6
413.15 K, 10000 kPa	682.3
413.15 K, 15000 kPa	690.5
413.15 K, 20000 kPa	698.1
413.15 K, 25000 kPa	705.3
413.15 K, 30000 kPa	712
413.15 K, 35000 kPa	718.2
413.15 K, 40000 kPa	723.8
413.15 K, 45000 kPa	729
413.15 K, 50000 kPa	733.7
413.15 K, 55000 kPa	737.9
413.15 K, 60000 kPa	741.5
